Measurements taken from patent publication US8119364B2, “Methods for generating analogs of coenzyme A” (The Regents of the University of California, priority 2005, dated 2012).
Entries after “also recorded” stand apart in the source; their conditions may differ. Like-named read-outs stand apart in the source and are kept apart here.

How the values were obtained:
E. coli PanK (CoAA) [1] = molecular target: T1, E. coli PanK (CoAA) (Escherichia coli, UniProt P0A6I3); test: Kinetic assay of pantetheine analogs as substrates of PanK; format: biochemical; conditions: for Km / kcat: compound as substrate of E. coli PanK; for Km, fold lower: compared with pantothenate
T1 sequence (P0A6I3 1-316): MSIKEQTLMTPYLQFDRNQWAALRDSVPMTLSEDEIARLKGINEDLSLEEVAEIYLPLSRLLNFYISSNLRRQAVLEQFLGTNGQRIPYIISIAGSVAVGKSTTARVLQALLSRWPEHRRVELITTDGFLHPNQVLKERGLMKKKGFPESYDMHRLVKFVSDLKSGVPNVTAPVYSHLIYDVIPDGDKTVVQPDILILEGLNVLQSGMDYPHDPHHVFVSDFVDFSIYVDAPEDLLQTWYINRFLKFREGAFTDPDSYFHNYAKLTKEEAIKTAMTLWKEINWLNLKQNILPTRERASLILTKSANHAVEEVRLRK
Procedure: As mentioned earlier, phosphorylation of the primary hydroxyl group of pantothenate by the first protein in the CoA biosynthesis pathway, PanK, is believed to be the rate limiting step in vivo. Jackowski and Rock, J. Bacteria 148:926, 1981. Due to its role as the gatekeeper of CoA biosynthesis, each of the new analogs was assayed for kinetic activity with PanK (Table 2).
The assay was performed as previously described using the prototypical bacterial PanK, CoAA from E. coli. Kumar and Aldrich, Org. Lett. 5:613, 2003. The reaction of CoAA with the natural substrate pantothenate gave values that conformed to those previously reported in the literature. Worthington and Burkart, Org. Biomol. Chem. 4:44, 2005; Strauss and Begley, J. Biol. Chem. 277:48205, 2002. […] Conversely, compounds with PEG linkers between the pantoic acid moiety and the bioorthogonal terminus were poor substrates for CoAA.

[2] = tested on: E. coli overexpressing the carrier protein VibB and the PPTase Sfp; test: In vivo uptake: carrier protein labeling in E. coli; format: cell-based; conditions: 1 mM compound, 4 hours of growth, SDS-PAGE fluorescence or western blot
Procedure: (§1) (a) Analogs were assayed for gel shift after reaction with CoA biosynthesis enzymes (CoAA/D/E), PPTase (Sfp) and carrier protein (E. coli ACP). Conversion of apo-ACP to reporter modified crypto-ACP causes a change in the mobility of the protein on native PAGE. (b) In vitro modification of the carrier protein VibB by reaction with fluorescent pantetheine analogs, CoA biosynthesis enzymes (CoAA/D/E) and Sfp. (c) In vivo modification of carrier protein by incubation of fluorescent pantetheine analogs with E. coli overexpressing VibB and the PPTase Sfp. (d) In vitro modification of VibB by reaction with bioorthogonal pantetheine analogs, CoA biosynthesis enzymes (CoAA/D/E) and Sfp. Labeled carrier protein is visualized by chemoselective ligation to the appropriate biotin reporter (9-11) followed by SDS-PAGE, blotting onto nitrocellulose, and incubation with streptavidin-linked alkaline phosphatase. (e) In vivo modification of carrier protein by incubation of bioorthogonal pantetheine analogs with E. coli overexpressing VibB and the PPTase Sfp. Visualization as in (d).
(§2) The library of pantetheine analogs was tested for integration into the E. coli CoA pathway using an in vivo assay. Clarke et al., J. Am. Chem. Soc. 127:11234, 2005. E. coli overexpressing the carrier protein VibB and the PPTase Sfp were incubated with 1 mM of each compound in 1 ml of culture. After 4 hours of growth cells were pelleted, washed, and lysed. Lysate from these cultures was run on SDS-PAGE gels and detection carried out as described for the in vitro studies. […] To verify the results of the gels and blots, samples of crude lysate were assayed by MALDI-MS (FIG. 11). For MALDI-MS analysis doubly transformed E. coli containing plasmids for the carrier protein Fren and the PPTase Sfp were used.

[3] = tested on: CoA biosynthesis enzymes (CoAA/D/E), PPTase (Sfp) and carrier protein (E. coli ACP); conditions: native PAGE
Procedure: Virga et al., Bioorg. Med. Chem. 14:1007, 2006. […] Clarke et al., J. Am. Chem. Soc. 127:11234, 2005.
as §1

[4] = tested on: CoA biosynthetic enzymes (CoAA/D/E), PPTase Sfp and apo-ACP; conditions: MALDI-MS, in vitro
Text: To confirm the results from this assay, the reaction mixtures were subjected to matrix-assisted laser desorption/ionization mass spectrometry (MALDI-MS). […] Compound 13 was reacted with the CoAA biosynthesis enzymes, ACP, and Sfp as described above and the reaction mix analyzed by MALDI without further purification.
Apo-ACP (a) is reacted with pantetheine analogs, CoA biosynthetic enzymes (CoAA/D/E) and the PPTase Sfp.

[5] = tested on: E. coli containing plasmids for the carrier protein Fren and the PPTase Sfp; test: MALDI-MS of crude lysate after in vivo labeling; format: cell-based
Procedure: as §2

CoAA = CoAA (Escherichia coli, UniProt P0A6I3); conditions: pantothenate as substrate
Text: To isolate and investigate the effect of H-bond accepting heteroatoms in the linker region, pantetheine analogs 15 and 16 were synthesized. […] Virga et al., Bioorg. Med. Chem. 14:1007, 2006. […] To test if these compounds were acting as inhibitors of CoAA, a competitive kinetic assay was set up using pantotenate as the substrate. […] Ivey et al., J. Biol. Chem. 279:35622, 2004. Investigation of these compounds as potential inhibitor scaffolds is ongoing.

E. coli PanK (CoAA) [6] = molecular target: T1, E. coli PanK (CoAA); conditions: natural pantetheine, from reference 14, cited from earlier work
[7] = compound 3 (β-Ala linkage) versus compound 1

Row | Structure (SMILES) | Km compared with natural substrate pantothenate (fold higher) (E. coli PanK (CoAA) [1]) | turnover compared with the natural substrate (in words) (E. coli PanK (CoAA) [1]) | Km (E. coli PanK (CoAA) [1]) [µM] | kcat (E. coli PanK (CoAA) [1]) [s⁻¹] | substrate suitability for CoAA/PanK (in words) (E. coli PanK (CoAA) [1]) | modification of VibB in vivo (detectability) [2] | also measured
1 | CC(C)(CO)[C@@H](O)C(=O)NCCN=[N+]=[N-] [Compound 1] | 20 fold | turnover within the range of the natural substrate | 692 ± 89.1 | 0.3722 ± 0.0257 |  |  | 
2 | C#CCNC(=O)CCNC(=O)[C@H](O)C(C)(C)CO [Compound 2] |  |  | 32.9 ± 2.54 | 0.5242 ± 0.0125 | kcat and Km values closely approaching those of the natural substrate | detectable modification of VibB in vivo; also recorded: biodetectible in E. coli | 
3 | CC(C)(CO)[C@@H](O)C(=O)NCCC(=O)NCCN=[N+]=[N-] [Compound 3] |  |  | 43.5 ± 1.99 | 0.46695 ± 0.007 | kcat and Km values closely approaching those of the natural substrate | detectable modification of VibB in vivo; also recorded: biodetectible in E. coli | increase in Km (E. coli PanK (CoAA) [1]; [7]): 10 fold; increase in catalytic efficiency (E. coli PanK (CoAA) [1]; [7]): ~20 fold
4 | CC(=O)CCC(=O)NCCNC(=O)CCNC(=O)[C@H](O)C(C)(C)CO [Compound 4] | two fold higher | near equal | 62.6 ± 3.89 | 0.344 ± 0.0075 |  | detectable, but showed much weaker labeling; also recorded: biodetectible in E. coli | 
5 | CC(C)(CO)[C@@H](O)C(=O)NCCC(=O)NCCNC(=O)CCN=[N+]=[N-] [Compound 5] | two fold higher | exceeding | 71.9 ± 6.98 | 0.6818 ± 0.0187 | processed particularly efficiently by PanK | detectable modification of VibB in vivo; also recorded: biodetectible in E. coli | 
6 | CC(=O)CCC(=O)NCCOCCOCCNC(=O)[C@H](O)C(C)(C)CO [Compound 6] |  |  | 0.196 ± 0.09 | 0.0267 ± 0.001 | markedly decreased kinetic activity |  | 
7 | CC(C)(CO)[C@@H](O)C(=O)NCCOCCOCCNC(=O)CCN=[N+]=[N-] [Compound 7] | two-fold higher |  | 53.8 ± 11.2 | 0.103 ± 0.00733 | viable substrates |  | 
8 | CC(C)(CO)[C@@H](O)C(=O)NCCOCCOCCOCCOCCOCCOCCOCCOCCOCCOCCN=[N+]=[N-] [Compound 8] |  |  |  |  | such poor substrates that kinetic data could not be generated |  | change in mobility / conversion of apo-ACP to crypto-ACP [3]: multiple bands on the gel that suggest apo-protein remains; conversion to CoA analog and transfer onto carrier protein ACP [4]: significantly incomplete
9 | CN(C)c1ccc2c(CC(=O)NCCNC(=O)[C@H](O)C(C)(C)CO)cc(=O)oc2c1 [Compound 12] |  |  | 37.2 ± 5.82 | 0.1927 ± 0.0095 | lower turnover and catalytic efficiency than analogs containing the natural β-Ala/pantoic acid linkage; also recorded: good binding but slow turnover | detectable modification of VibB in vivo; also recorded: biodetectible in E. coli | 
10 | CN(C)c1ccc2c(CC(=O)NCCCCCCNC(=O)CCNC(=O)[C@H](O)C(C)(C)CO)cc(=O)oc2c1 [Compound 13] | the same as | near equal | 28.4 ± 6.92 | 0.3193 ± 0.0235 | processed particularly efficiently by PanK | detectable modification of VibB in vivo; also recorded: biodetectible in E. coli | conversion to CoA analog and transfer onto carrier protein ACP [4]: converted to CoA analogs and modify ACP; in vivo uptake and attachment onto Fren [5]: taken up by the cell, processed into a CoA analog and attached onto Fren
11 | CN(C)c1cccc2c(S(=O)(=O)NCCNC(=O)CCNC(=O)[C@H](O)C(C)(C)CO)cccc12 [Compound 14] | the same as | near equal | 27.3 ± 3.28 | 0.2877 ± 0.0103 | processed particularly efficiently by PanK |  | 
12 | CN(C)c1ccc2c(CC(=O)NCCCOCCNC(=O)[C@H](O)C(C)(C)CO)cc(=O)oc2c1 [Compound 15] |  |  | 0.76 ± 0.32 | 0.0227 ± 0.00083 | extremely poor substrates; also recorded: losing almost all substrate activity |  | Km, fold lower (E. coli PanK (CoAA) [1]): 100 fold; mode of inhibition of CoAA (CoAA): non-competitive inhibitor
13 | CN(C)c1ccc2c(CC(=O)NCCOCCCNC(=O)[C@H](O)C(C)(C)CO)cc(=O)oc2c1 [Compound 16] |  |  | 0.14 ± 0.18 | 0.0167 ± 0.0005 | extremely poor substrates; also recorded: losing almost all substrate activity |  | Km, fold lower (E. coli PanK (CoAA) [1]): 100 fold
14 | CN(C)c1ccc2c(CC(=O)NCCOCCOCCNC(=O)[C@H](O)C(C)(C)CO)cc(=O)oc2c1 [Compound 17] | two-fold higher |  | 51.2 ± 6.42 | 0.1677 ± 0.00717 | viable substrates |  | conversion to CoA analog and transfer onto carrier protein ACP [4]: converted to CoA analogs and modify ACP
15 | CN(C)c1ccc2c(CC(=O)NCCOCCOCCOCCOCCOCCOCCOCCOCCOCCOCCNC(=O)[C@H](O)C(C)(C)CO)cc(=O)oc2c1 [Compound 18] |  |  |  |  | such poor substrates that kinetic data could not be generated |  | change in mobility / conversion of apo-ACP to crypto-ACP [3]: multiple bands on the gel that suggest apo-protein remains
16 | CC(C)(CO)[C@@H](O)C(=O)NCCC(=O)NCCS [Pantetheine] |  |  |  |  |  |  | Km (E. coli PanK (CoAA) [6]): 91 ± 10 µM; kcat (E. coli PanK (CoAA) [6]): 0.32 ± 0.0017 s⁻¹; kcat (E. coli PanK (CoAA) [6]; listed as pantetheine): 0.525 s⁻¹
